Measured values from PubChem BioAssay AID248 (DTP/NCI, 2004).
“And” between values parts separate entries of the source, which are not always exact repeats. Equal values may be shown once. Inconclusive results and toxic doses are left out. Cut-off read from the data, not from the text of the source: active = T/C of 150% or more; inactive = T/C below 125%.

Test system: L1210 leukemia ip in BDF1 mice, survival T/C
Test: NCI In Vivo Anticancer Drug Screen. Data for tumor model L1210 Leukemia (intraperitoneal) in B6D2F1 (BDF1) mice
Settings: endpoint: mean survival time, higher = longer survival
In short: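 In this screen, tumor-bearing mice given compound are compared to those given vehicle, and their survival values are reported as a treated-to-control quotient.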

[1] = dose: 100.0 mg/kg/injection, schedule: Q01DX001 (ip), vehicle: saline
[2] = dose: 200.0 mg/kg/injection, schedule: Q01DX001 (ip), vehicle: saline
[3] = dose: 400.0 mg/kg/injection, schedule: Q01DX001 (ip), vehicle: saline
[4] = dose: 100.0 mg/kg/injection, schedule: Q01DX001 (ip), vehicle: carboxymethylcellulose (CMC)
[5] = dose: 200.0 mg/kg/injection, schedule: Q01DX001 (ip), vehicle: carboxymethylcellulose (CMC)
[6] = dose: 400.0 mg/kg/injection, schedule: Q01DX001 (ip), vehicle: carboxymethylcellulose (CMC)
[7] = dose: 100.0 mg/kg/injection, schedule: Q04DX003 (ip), vehicle: Klucel (hydroxypropylcellulose) (HPC)
[8] = dose: 200.0 mg/kg/injection, schedule: Q04DX003 (ip), vehicle: Klucel (hydroxypropylcellulose) (HPC)
[9] = dose: 400.0 mg/kg/injection, schedule: Q04DX003 (ip), vehicle: Klucel (hydroxypropylcellulose) (HPC)
[10] = dose: 100.0 mg/kg/injection, schedule: Q04DX003 (ip), vehicle: saline
[11] = dose: 200.0 mg/kg/injection, schedule: Q04DX003 (ip), vehicle: saline
[12] = dose: 400.0 mg/kg/injection, schedule: Q04DX003 (ip), vehicle: saline
[13] = dose: 100.0 mg/kg/injection, schedule: Q04DX002 (ip), vehicle: Klucel (hydroxypropylcellulose) (HPC)
[14] = dose: 200.0 mg/kg/injection, schedule: Q04DX002 (ip), vehicle: Klucel (hydroxypropylcellulose) (HPC)
[15] = dose: 400.0 mg/kg/injection, schedule: Q04DX002 (ip), vehicle: Klucel (hydroxypropylcellulose) (HPC)
[16] = dose: 100.0 mg/kg/injection, schedule: Q01DX001 (ip), vehicle: Klucel (hydroxypropylcellulose) (HPC)
[17] = dose: 200.0 mg/kg/injection, schedule: Q01DX001 (ip), vehicle: Klucel (hydroxypropylcellulose) (HPC)
[18] = dose: 400.0 mg/kg/injection, schedule: Q01DX001 (ip), vehicle: Klucel (hydroxypropylcellulose) (HPC)
[19] = dose: 100.0 mg/kg/injection, schedule: Q04DX002 (ip), vehicle: saline with Tween-80
[20] = dose: 200.0 mg/kg/injection, schedule: Q04DX002 (ip), vehicle: saline with Tween-80
[21] = dose: 400.0 mg/kg/injection, schedule: Q04DX002 (ip), vehicle: saline with Tween-80
[22] = dose: 100.0 mg/kg/injection, schedule: Q04DX003 (ip), vehicle: saline with Tween-80
[23] = dose: 200.0 mg/kg/injection, schedule: Q04DX003 (ip), vehicle: saline with Tween-80
[24] = dose: 400.0 mg/kg/injection, schedule: Q04DX003 (ip), vehicle: saline with Tween-80
[25] = dose: 100.0 mg/kg/injection, schedule: Q01DX009 (ip), vehicle: Klucel (hydroxypropylcellulose) (HPC)
[26] = dose: 200.0 mg/kg/injection, schedule: Q01DX009 (ip), vehicle: Klucel (hydroxypropylcellulose) (HPC)
[27] = dose: 400.0 mg/kg/injection, schedule: Q01DX009 (ip), vehicle: Klucel (hydroxypropylcellulose) (HPC)

Measured: T/C

CC/C(C)=N\O
inactive: dose: 50.0 mg/kg/injection, schedule: Q01DX001 (ip), vehicle: saline 112 % of control | [1] 101 % of control | [2] 93 % of control | [3] 95 % of control

SC1c2cc(Cl)ccc2-c2ccc(Cl)cc21
inactive: [4] 92 % of control | [5] 92 % of control | [6] 92 % of control

CCc1nc(C)ncc1-c1ccc([N+](=O)[O-])cc1O
inactive: [7] 97 % of control | [8] 97 % of control | [9] 91 % of control

CCCn1c(C)nc2c1C(=O)c1ccccc1C2=O
inactive: [1] 94 % of control | [10] 86 % of control | [2] 98 % of control | [11] 88 % of control | [3] 103 % of control | [12] 91 % of control

CSc1ccccc1NC(=O)c1ccccc1
inactive: [13] 93 % of control | [14] 86 % of control | [15] 96 % of control

O=C(C(O[N+](=O)[O-])c1ccccc1)C(O[N+](=O)[O-])c1ccccc1 (stereo not drawn)
inactive: [16] 95 % of control | [17] 95 % of control | [18] 93 % of control

CCCCCSP(=S)(SCCCCC)c1ccccc1
inactive: [19] 99 % of control | [20] 105 % of control | [21] 99 % of control

CC(C)=CCC/C(C)=C\C=N\O
inactive: [4] 101 % of control | [5] 95 % of control | [6] 98 % of control

CC(C)COC(=O)C#CC(=O)OCC(C)C
inactive: dose: 25.0 mg/kg/injection, schedule: Q01DX001 (ip), vehicle: water 111 % of control | dose: 50.0 mg/kg/injection, schedule: Q01DX001 (ip), vehicle: water 106 % of control | dose: 100.0 mg/kg/injection, schedule: Q01DX001 (ip), vehicle: water 116 % of control

Cc1ccc(O)c(-c2ccccc2)c1
inactive: [16] 100 % of control | [17] 100 % of control | [18] 103 % of control

O=C1NCCNC1=O
inactive: [10] 101 % of control | [11] 100 % of control | [12] 105 % of control

Cc1ccc(C(C)(c2ccccc2)C(C)(CC=O)CC(=O)O)cc1 (stereo not drawn)
inactive: [22] 92 % of control | [23] 92 % of control | [24] 96 % of control

O=[N+]([O-])c1cc(S(=O)(=O)c2ccccc2)ccc1S(=O)(=O)c1ccccc1
inactive: dose: 50.0 mg/kg/injection, schedule: Q01DX005 (ip), vehicle: saline with Tween-80 99 % of control | dose: 100.0 mg/kg/injection, schedule: Q01DX005 (ip), vehicle: saline with Tween-80 94 % of control | dose: 400.0 mg/kg/injection, schedule: Q01DX005 (ip), vehicle: saline with Tween-80 89 % of control

CN1C(=O)C2C(N=CN2C)N(C)C1=O (stereo not drawn)
inactive: dose: 100.0 mg/kg/injection, schedule: Q01DX009 (ip), vehicle: saline with Tween-80 96 % of control | dose: 200.0 mg/kg/injection, schedule: Q01DX009 (ip), vehicle: saline with Tween-80 90 % of control

CCC(NC(=O)c1cnc2ccccc2n1)C(=O)O (stereo not drawn)
inactive: [10] 101 % of control | [11] 92 % of control | [12] 90 % of control

CCN(CC)c1ccc(/C=C\C(=O)c2ccccc2)cc1
inactive: [25] 97 % of control | [26] 100 % of control | [27] 100 % of control

O=C(O)CN=CC(O)C(O)C(O)C(O)CO (stereo not drawn)
inactive: dose: 12.5 mg/kg/injection, schedule: Q04DX002 (ip), vehicle: saline 105 % of control | dose: 25.0 mg/kg/injection, schedule: Q04DX002 (ip), vehicle: saline 88 % of control | dose: 50.0 mg/kg/injection, schedule: Q04DX002 (ip), vehicle: saline 105 % of control | dose: 100.0 mg/kg/injection, schedule: Q04DX002 (ip), vehicle: saline 123 % of control | dose: 200.0 mg/kg/injection, schedule: Q04DX002 (ip), vehicle: saline 103 % of control | dose: 400.0 mg/kg/injection, schedule: Q04DX002 (ip), vehicle: saline 106 % of control

COC(=O)c1cc(NC(=O)CC(=O)c2cccc(N)c2)cc(C(=O)OC)c1
inactive: [7] 104 % of control | [8] 96 % of control | [9] 94 % of control

CCNCc1ccc(OC)cc1
inactive: dose: 25.0 mg/kg/injection, schedule: Q01DX009 (ip), vehicle: saline 101 % of control | dose: 50.0 mg/kg/injection, schedule: Q01DX009 (ip), vehicle: saline 93 % of control | dose: 100.0 mg/kg/injection, schedule: Q01DX009 (ip), vehicle: saline 100 % of control | [22] 120 % of control

CN(C)c1ccc(C(=C(C#N)C#N)c2ccc(N(C)C)cc2)cc1
inactive: [25] 98 % of control | [7] 95 % of control | [26] 98 % of control | [8] 101 % of control | [27] 102 % of control | [9] 101 % of control

CC(=O)c1ccc(N2CCN(c3ccc(C(C)=O)cc3)CC2)cc1
inactive: [10] 93 % of control | [11] 95 % of control | [12] 98 % of control

O=C(Nc1ccc(Cl)cc1)Nc1ccccc1F
inactive: [23] 91 % of control | [24] 89 % of control

CCOC(=O)c1c(-c2ccc([N+](=O)[O-])cc2)c(C#N)n(-c2ccccc2)c1C
inactive: [13] 95 % of control | [14] 92 % of control | [15] 103 % of control

O=[N+]([O-])c1ccc(OC(=S)N2CCOCC2)cc1
inactive: [19] 104 % of control | [20] 104 % of control | [21] 101 % of control

O=C1c2ccccc2Cc2ccccc21
inactive: [1] 97 % of control | dose: 100.0 mg/kg/injection, schedule: Q04DX002 (ip), vehicle: gum acacia 103 % of control | [2] 95 % of control | dose: 200.0 mg/kg/injection, schedule: Q04DX002 (ip), vehicle: gum acacia 100 % of control | [3] 106 % of control | dose: 400.0 mg/kg/injection, schedule: Q04DX002 (ip), vehicle: gum acacia 106 % of control

O=C1C=CC(=O)C2C1C1(Cl)CC2(Cl)C(Cl)=C1Cl (stereo not drawn)
inactive: dose: 6.25 mg/kg/injection, schedule: Q04DX002 (ip), vehicle: Klucel (hydroxypropylcellulose) (HPC) 100 % of control | dose: 12.5 mg/kg/injection, schedule: Q04DX002 (ip), vehicle: Klucel (hydroxypropylcellulose) (HPC) 95 % of control | dose: 25.0 mg/kg/injection, schedule: Q04DX002 (ip), vehicle: Klucel (hydroxypropylcellulose) (HPC) 100 % of control and 108 % of control

CCCC(O)C(C)[N+](=O)[O-] (stereo not drawn)
inactive: [10] 96 % of control | [11] 102 % of control | [12] 96 % of control
